Key:
[1] = biological target: Calcium/calmodulin-dependent protein kinase type II subunit gamma (Homo sapiens) (UniProt Q13555); conditions: Compound concentration 1000.0 nM
[2] = biological target: Serine/threonine-protein kinase ULK2 (Homo sapiens) (UniProt Q8IYT8); conditions: Compound concentration 1000.0 nM
[3] = biological target: Sigma intracellular receptor 2 (Homo sapiens) (UniProt Q5BJF2); conditions: Compound concentration 10.0 uM
[4] = biological target: Casein kinase I isoform gamma-2 (Homo sapiens) (UniProt P78368); conditions: Compound concentration 1000.0 nM
[5] = biological target: Ephrin type-B receptor 1 (Homo sapiens) (UniProt P54762); conditions: Compound concentration 1000.0 nM
[6] = biological target: Mitogen-activated protein kinase kinase kinase 9 (Homo sapiens) (UniProt P80192); conditions: Compound concentration 1000.0 nM
[7] = biological target: Cyclin-dependent kinase 17 (Homo sapiens) (UniProt Q00537); conditions: Compound concentration 1000.0 nM
[8] = biological target: Cyclin-dependent kinase 4 (Homo sapiens) (UniProt P11802); conditions: Compound concentration 1000.0 nM
[9] = biological target: Cyclin-dependent kinase 4 (Homo sapiens) (UniProt P11802); conditions: Compound concentration 1000.0 nM; remark: listed apart in the source
[10] = biological target: Mast/stem cell growth factor receptor Kit (Homo sapiens) (UniProt P10721); conditions: Compound concentration 1000.0 nM
[11] = biological target: Tyrosine-protein kinase ITK/TSK (Homo sapiens) (UniProt Q08881); conditions: Compound concentration 1000.0 nM
[12] = biological target: Ribosomal protein S6 kinase alpha-3 (Homo sapiens) (UniProt P51812); conditions: Compound concentration 1000.0 nM
[13] = biological target: Muscarinic acetylcholine receptor M3 (Homo sapiens) (UniProt P20309); conditions: Compound concentration 10.0 uM
[14] = biological target: Serine/threonine-protein kinase Nek11 (Homo sapiens) (UniProt Q8NG66); conditions: Compound concentration 1000.0 nM
[15] = biological target: Macrophage colony-stimulating factor 1 receptor (Homo sapiens) (UniProt P07333); conditions: Compound concentration 1000.0 nM
[16] = biological target: SNF-related serine/threonine-protein kinase (Homo sapiens) (UniProt Q9NRH2); conditions: Compound concentration 1000.0 nM
[17] = biological target: Megakaryocyte-associated tyrosine-protein kinase (Homo sapiens) (UniProt P42679); conditions: Compound concentration 1000.0 nM
[18] = biological target: Beta-1 adrenergic receptor (Homo sapiens, UniProt P08588); conditions: Compound concentration 10.0 uM
[19] = biological target: Bone morphogenetic protein receptor type-1B (Homo sapiens) (UniProt O00238); conditions: Compound concentration 1000.0 nM
[20] = biological target: Serine/threonine-protein kinase D1 (Homo sapiens) (UniProt Q15139); conditions: Compound concentration 1000.0 nM
[21] = biological target: Testis-specific serine/threonine-protein kinase 3 (Homo sapiens) (UniProt Q96PN8); conditions: Compound concentration 1000.0 nM
[22] = biological target: Tyrosine-protein kinase receptor TYRO3 (Homo sapiens) (UniProt Q06418); conditions: Compound concentration 1000.0 nM
[23] = biological target: Serine/threonine-protein kinase PAK 1 (Homo sapiens) (UniProt Q13153); conditions: Compound concentration 1000.0 nM
[24] = biological target: Mitogen-activated protein kinase kinase kinase 11 (Homo sapiens) (UniProt Q16584); conditions: Compound concentration 1000.0 nM
[25] = tested on: Receptor-type tyrosine-protein kinase FLT3 (Homo sapiens), P36888 [N841I]; conditions: Compound concentration 1000.0 nM
[26] = biological target: Aurora kinase A (Homo sapiens) (UniProt O14965); conditions: Compound concentration 1000.0 nM
[27] = tested on: ALK tyrosine kinase receptor (Homo sapiens), Q9UM73 [L1196M]; conditions: Compound concentration 1000.0 nM
[28] = biological target: Glycogen synthase kinase-3 beta (Homo sapiens) (UniProt P49841); conditions: Compound concentration 1000.0 nM
[29] = biological target: Vascular endothelial growth factor receptor 2 (Homo sapiens) (UniProt P35968); conditions: Compound concentration 1000.0 nM
[30] = biological target: Serine/threonine-protein kinase RIO3 (Homo sapiens) (UniProt O14730); conditions: Compound concentration 1000.0 nM
[31] = biological target: Calcium/calmodulin-dependent protein kinase type II subunit beta (Homo sapiens) (UniProt Q13554); conditions: Compound concentration 1000.0 nM
[32] = biological target: D(2) dopamine receptor (Homo sapiens) (UniProt P14416); conditions: Compound concentration 10.0 uM
[33] = biological target: G protein-coupled receptor kinase 3 (Homo sapiens) (UniProt P35626); conditions: Compound concentration 1000.0 nM
[34] = tested on: Tyrosine-protein kinase ABL1 (Homo sapiens), P00519 [T315I]; conditions: Compound concentration 1000.0 nM
[35] = biological target: Testis-specific serine/threonine-protein kinase 1 (Homo sapiens) (UniProt Q9BXA7); conditions: Compound concentration 1000.0 nM
[36] = biological target: Ribosomal protein S6 kinase alpha-5 (Homo sapiens) (UniProt O75582); conditions: Compound concentration 1000.0 nM
[37] = tested on: Tyrosine-protein kinase ABL1 (Homo sapiens), P00519 [H396P]; conditions: Compound concentration 1000.0 nM
[38] = biological target: Serine/threonine-protein kinase TNNI3K (Homo sapiens) (UniProt Q59H18); conditions: Compound concentration 1000.0 nM
[39] = tested on: Serine/threonine-protein kinase B-raf (Homo sapiens), P15056 [V600E]; conditions: Compound concentration 1000.0 nM
[40] = biological target: Serine/threonine-protein kinase PAK 3 (Homo sapiens) (UniProt O75914); conditions: Compound concentration 1000.0 nM
[41] = biological target: Dual specificity mitogen-activated protein kinase kinase 2 (Homo sapiens) (UniProt P36507); conditions: Compound concentration 1000.0 nM
[42] = biological target: MAP kinase-interacting serine/threonine-protein kinase 1 (Homo sapiens) (UniProt Q9BUB5); conditions: Compound concentration 1000.0 nM
[43] = biological target: Proto-oncogene tyrosine-protein kinase receptor Ret (Homo sapiens) (UniProt P07949); conditions: Compound concentration 1000.0 nM
[44] = biological target: Serine/threonine-protein kinase N1 (Homo sapiens) (UniProt Q16512); conditions: Compound concentration 1000.0 nM
[45] = tested on: Receptor-type tyrosine-protein kinase FLT3 (Homo sapiens), P36888 [UNDEFINED MUTATION]; conditions: Compound concentration 1000.0 nM

Sequence of Cyclin-dependent kinase 4 (Homo sapiens) (P11802 whole entry): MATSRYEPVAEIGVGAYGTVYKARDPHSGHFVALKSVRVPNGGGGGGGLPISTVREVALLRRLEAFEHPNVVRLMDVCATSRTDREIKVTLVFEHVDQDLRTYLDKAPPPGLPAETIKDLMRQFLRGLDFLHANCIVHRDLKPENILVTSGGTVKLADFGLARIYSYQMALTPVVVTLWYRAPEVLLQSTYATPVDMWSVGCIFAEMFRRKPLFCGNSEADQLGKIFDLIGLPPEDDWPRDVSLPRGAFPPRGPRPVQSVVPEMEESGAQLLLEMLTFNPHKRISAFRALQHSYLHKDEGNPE
Sequence of Testis-specific serine/threonine-protein kinase 1 (Homo sapiens) (Q9BXA7 whole entry): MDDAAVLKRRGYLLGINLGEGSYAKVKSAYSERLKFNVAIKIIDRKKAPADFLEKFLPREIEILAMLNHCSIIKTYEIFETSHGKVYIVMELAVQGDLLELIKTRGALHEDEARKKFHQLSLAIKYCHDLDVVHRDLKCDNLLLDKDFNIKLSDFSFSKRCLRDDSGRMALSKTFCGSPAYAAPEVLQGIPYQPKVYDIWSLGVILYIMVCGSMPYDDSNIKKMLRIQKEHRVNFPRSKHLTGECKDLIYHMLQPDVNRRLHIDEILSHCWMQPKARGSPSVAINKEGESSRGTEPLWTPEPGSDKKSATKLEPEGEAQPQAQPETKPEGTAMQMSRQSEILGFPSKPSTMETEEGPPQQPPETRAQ
Sequence of Cyclin-dependent kinase 17 (Homo sapiens) (Q00537 whole entry, looked up): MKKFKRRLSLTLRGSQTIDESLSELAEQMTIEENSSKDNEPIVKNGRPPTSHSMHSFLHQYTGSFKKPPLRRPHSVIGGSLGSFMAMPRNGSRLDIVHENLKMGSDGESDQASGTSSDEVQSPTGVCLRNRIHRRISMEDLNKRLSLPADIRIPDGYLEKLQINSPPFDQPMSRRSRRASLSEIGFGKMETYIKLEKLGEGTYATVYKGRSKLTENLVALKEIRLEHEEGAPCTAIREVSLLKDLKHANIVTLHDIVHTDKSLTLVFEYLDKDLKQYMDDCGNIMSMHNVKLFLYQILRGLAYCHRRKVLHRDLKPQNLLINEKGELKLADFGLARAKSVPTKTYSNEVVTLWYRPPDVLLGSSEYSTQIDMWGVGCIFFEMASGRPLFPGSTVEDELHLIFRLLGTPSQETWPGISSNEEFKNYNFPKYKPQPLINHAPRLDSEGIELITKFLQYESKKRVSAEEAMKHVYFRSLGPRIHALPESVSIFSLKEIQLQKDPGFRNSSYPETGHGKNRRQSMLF
Sequence of Calcium/calmodulin-dependent protein kinase type II subunit beta (Homo sapiens) (Q13554 whole entry): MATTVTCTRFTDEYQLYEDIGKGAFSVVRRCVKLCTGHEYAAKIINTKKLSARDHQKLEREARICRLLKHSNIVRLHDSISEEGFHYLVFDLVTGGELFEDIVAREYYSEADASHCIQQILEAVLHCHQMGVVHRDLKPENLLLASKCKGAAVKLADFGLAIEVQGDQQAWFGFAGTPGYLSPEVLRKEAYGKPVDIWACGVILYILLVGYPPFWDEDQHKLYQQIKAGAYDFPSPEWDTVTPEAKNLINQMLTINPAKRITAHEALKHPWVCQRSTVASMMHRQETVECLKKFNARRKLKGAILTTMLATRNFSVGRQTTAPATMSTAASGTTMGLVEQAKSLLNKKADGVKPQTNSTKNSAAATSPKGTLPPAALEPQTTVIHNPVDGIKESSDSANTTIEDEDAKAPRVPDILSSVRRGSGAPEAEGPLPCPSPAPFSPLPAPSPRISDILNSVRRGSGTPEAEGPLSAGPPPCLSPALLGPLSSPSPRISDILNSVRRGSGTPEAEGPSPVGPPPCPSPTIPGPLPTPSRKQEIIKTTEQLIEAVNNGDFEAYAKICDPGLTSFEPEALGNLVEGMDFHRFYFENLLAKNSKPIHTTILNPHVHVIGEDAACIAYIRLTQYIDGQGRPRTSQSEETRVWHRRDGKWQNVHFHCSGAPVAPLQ
Sequence of Mast/stem cell growth factor receptor Kit (Homo sapiens) (P10721 whole entry): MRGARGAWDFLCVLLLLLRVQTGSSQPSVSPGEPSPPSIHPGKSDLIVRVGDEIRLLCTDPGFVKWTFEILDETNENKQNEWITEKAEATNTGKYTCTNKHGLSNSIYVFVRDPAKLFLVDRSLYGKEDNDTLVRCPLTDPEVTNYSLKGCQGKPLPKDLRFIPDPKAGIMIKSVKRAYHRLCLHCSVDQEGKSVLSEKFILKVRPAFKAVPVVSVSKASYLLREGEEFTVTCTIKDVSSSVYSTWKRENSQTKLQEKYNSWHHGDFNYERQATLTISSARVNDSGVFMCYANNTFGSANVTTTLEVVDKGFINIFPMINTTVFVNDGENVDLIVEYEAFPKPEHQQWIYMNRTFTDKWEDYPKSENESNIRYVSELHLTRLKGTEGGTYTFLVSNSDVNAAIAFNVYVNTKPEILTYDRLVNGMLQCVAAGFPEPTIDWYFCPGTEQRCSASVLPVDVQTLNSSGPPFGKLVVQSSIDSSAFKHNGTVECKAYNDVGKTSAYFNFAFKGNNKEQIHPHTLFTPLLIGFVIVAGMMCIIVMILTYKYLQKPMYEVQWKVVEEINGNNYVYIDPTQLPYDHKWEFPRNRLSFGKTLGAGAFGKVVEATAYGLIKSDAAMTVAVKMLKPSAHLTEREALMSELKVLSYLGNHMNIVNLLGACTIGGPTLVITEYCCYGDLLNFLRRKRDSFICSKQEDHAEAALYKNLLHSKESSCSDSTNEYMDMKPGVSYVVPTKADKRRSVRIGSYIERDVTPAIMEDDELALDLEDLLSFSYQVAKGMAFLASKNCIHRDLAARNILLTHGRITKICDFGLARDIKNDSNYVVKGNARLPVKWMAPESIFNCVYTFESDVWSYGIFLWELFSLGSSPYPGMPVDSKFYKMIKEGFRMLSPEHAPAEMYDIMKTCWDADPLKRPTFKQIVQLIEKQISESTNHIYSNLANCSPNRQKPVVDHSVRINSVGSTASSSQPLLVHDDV
Sequence of Serine/threonine-protein kinase N1 (Homo sapiens) (Q16512 2-942 limits assumed): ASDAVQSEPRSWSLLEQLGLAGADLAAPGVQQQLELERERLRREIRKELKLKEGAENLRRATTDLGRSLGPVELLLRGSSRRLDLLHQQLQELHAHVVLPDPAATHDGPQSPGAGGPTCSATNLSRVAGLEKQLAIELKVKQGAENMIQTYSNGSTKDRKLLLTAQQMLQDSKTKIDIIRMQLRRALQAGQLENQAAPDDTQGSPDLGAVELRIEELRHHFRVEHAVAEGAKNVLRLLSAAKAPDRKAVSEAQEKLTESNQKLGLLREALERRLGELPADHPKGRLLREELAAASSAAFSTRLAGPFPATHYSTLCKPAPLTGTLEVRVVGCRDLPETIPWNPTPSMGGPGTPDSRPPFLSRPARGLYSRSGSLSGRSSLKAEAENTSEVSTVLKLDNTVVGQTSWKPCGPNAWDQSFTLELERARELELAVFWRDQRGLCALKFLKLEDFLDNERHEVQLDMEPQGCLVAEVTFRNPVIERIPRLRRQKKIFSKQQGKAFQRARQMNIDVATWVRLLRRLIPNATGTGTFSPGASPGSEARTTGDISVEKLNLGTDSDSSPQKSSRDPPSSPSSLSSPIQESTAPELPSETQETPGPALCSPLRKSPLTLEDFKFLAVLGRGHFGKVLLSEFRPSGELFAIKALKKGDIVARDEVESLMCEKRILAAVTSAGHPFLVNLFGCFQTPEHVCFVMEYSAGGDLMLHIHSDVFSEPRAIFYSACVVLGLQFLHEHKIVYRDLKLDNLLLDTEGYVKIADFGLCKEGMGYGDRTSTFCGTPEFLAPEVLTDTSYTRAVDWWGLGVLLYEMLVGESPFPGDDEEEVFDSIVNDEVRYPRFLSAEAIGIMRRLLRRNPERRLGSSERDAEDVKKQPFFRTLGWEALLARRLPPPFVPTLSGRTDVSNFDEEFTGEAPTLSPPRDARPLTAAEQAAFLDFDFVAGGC
Sequence of Muscarinic acetylcholine receptor M3 (Homo sapiens) (P20309 whole entry, looked up): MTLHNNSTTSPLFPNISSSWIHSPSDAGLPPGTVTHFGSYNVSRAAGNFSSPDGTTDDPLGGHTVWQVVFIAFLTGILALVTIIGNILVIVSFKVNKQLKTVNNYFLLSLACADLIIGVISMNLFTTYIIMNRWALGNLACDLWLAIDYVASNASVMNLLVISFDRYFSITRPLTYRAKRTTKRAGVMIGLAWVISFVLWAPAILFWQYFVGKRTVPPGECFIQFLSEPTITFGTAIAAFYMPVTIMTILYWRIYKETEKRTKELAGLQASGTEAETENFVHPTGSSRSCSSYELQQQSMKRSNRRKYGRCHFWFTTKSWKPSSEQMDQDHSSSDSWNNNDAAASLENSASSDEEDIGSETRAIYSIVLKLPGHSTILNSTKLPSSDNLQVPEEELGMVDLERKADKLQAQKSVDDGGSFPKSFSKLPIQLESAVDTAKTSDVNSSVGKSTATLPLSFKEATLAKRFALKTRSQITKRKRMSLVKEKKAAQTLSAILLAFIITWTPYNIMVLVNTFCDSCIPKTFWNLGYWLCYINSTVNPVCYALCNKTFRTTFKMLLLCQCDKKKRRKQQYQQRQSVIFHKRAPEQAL
Sequence of Testis-specific serine/threonine-protein kinase 3 (Homo sapiens) (Q96PN8 whole entry): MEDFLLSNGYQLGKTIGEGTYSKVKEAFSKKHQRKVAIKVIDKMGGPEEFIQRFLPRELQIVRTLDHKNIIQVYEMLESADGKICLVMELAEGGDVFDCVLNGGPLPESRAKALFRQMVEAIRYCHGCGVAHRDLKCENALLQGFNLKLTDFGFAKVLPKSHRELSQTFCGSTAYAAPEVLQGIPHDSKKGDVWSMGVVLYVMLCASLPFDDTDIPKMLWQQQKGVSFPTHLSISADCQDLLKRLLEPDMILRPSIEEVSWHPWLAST
Sequence of Sigma intracellular receptor 2 (Homo sapiens) (Q5BJF2 whole entry, canonical isoform): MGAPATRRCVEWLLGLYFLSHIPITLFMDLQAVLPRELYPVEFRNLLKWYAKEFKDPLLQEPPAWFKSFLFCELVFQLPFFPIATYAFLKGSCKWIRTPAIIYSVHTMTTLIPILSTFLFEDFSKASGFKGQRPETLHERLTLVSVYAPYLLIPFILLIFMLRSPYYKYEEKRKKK

CC(=O)C1=C(C)N(c2cccc(C(F)(F)F)c2)C(=O)N[C@@H]1c1ccc(C#N)nc1 [BAY-678]
residual activity [1]: 100%
residual activity [2]: 100%
inhibition [3]: 35.9%
residual activity [4]: 94.6%
residual activity [5]: 100%
residual activity [6]: 94%
residual activity [7]: 100%
residual activity [8]: 79.4%
residual activity [9]: 100%
residual activity [10]: 96.9%
residual activity [11]: 90.4%
residual activity [12]: 100%
inhibition [13]: 10.4%
residual activity [14]: 100%
residual activity [15]: 100%
residual activity [16]: 100%
residual activity [17]: 100%
inhibition [18]: 60%
residual activity [19]: 74.2%
residual activity [20]: 95.7%
residual activity [21]: 96.2%
residual activity [22]: 66.9%
residual activity [23]: 91.2%
residual activity [24]: 100%
residual activity [25]: 73.8%
residual activity [26]: 83.9%
residual activity [27]: 94.1%
residual activity [28]: 100%
residual activity [29]: 84%
residual activity [30]: 100%
residual activity [31]: 95.7%
inhibition [32]: 0.569%
residual activity [33]: 92.6%
residual activity [34]: 96.9%
residual activity [35]: 100%
residual activity [36]: 83.4%
residual activity [37]: 100%
residual activity [38]: 99.7%
residual activity [39]: 100%
residual activity [40]: 86.3%
residual activity [41]: 84.2%
residual activity [42]: 100%
residual activity [43]: 92.4%
residual activity [44]: 71.1%
residual activity [45]: 61.2%

Reference: ChEMBL document CHEMBL4507272 (2021)
